row,SMILES,melting point [°C]
1,Cc1ccc(-c2c(-c3ccc(S(C)(=O)=O)cc3)cnn(-c3ccc(F)cc3)c2=O)cc1F,245 to 248
2,Cc1cccc(C(=O)NC(Nc2c(Nc3cccnc3)c(=O)c2=O)C(C)(C)Cc2ccncc2)c1 (stereo not drawn),219 to 221
3,COc1cc(C)c(C=CC(C)=CC=CC(C)=CC(=O)NC(C)C)c(C)c1C,200
4,CCN(CC)C(=N)N[N+](=O)[O-],96 to 97
5,CCCC(=O)Nc1cscn1,63 to 66
6,Fc1ccc(-c2ccc(-c3cc(N4CCNCC4)nnc3C(F)(F)F)cc2)cc1,162
7,Cc1cccc(NC(=O)OC(C)(C)C)c1COc1cccn2c(C=O)c(C)nc12,189 to 191
8,O=C1COCC2CCCN12 (stereo not drawn),63.5 to 66
9,CCCn1c(CCOC)nc2c(N)nc3cc(OCCCN)ccc3c21,165 to 166
10,COc1ccc(-c2nc(OCC#N)c3cc(OC)ccc3c2[N+](=O)[O-])cc1,192 to 194
11,c1cc(OCCCNCC2COc3cc4c(cc3O2)OCO4)c2cccnc2c1 (stereo not drawn),140 to 145
12,CCCOCc1cc2cc(-c3ccc4c(c3)C=C(C(=O)Nc3ccc(CN(C)C5CCOCC5)cc3)CCS4(=O)=O)ccc2o1,204 to 206
13,CC(C)(C)c1cc2c(c(C(C)(C)C)c1O)CC1(CCSCC1)O2,209
14,CC(C)C(=O)c1cn(-c2c(Cl)cc(C(F)(F)F)cc2Cl)nc1C#N,168 to 169
15,CCOC(=O)CC[C@H](NC(=O)c1ccc(NCc2cnc3nc(N)nc(N)c3c2)cc1)C(=O)OCC,262
16,CC1=NC(=O)C(Cc2c[nH]c3ccccc23)N(O)C1=O (stereo not drawn),166 to 168

row,SMILES,melting point [°C]
1,N#Cc1c(N2CCN(C(=O)c3cccs3)CC2)c2cccnc2n(Cc2cccc(F)c2)c1=O,231
2,CCc1noc(-c2ncc3[nH]c4cccc(Oc5ccc(Cl)cc5)c4c3c2COC)n1,170
3,COc1cc(C=O)cc(OC)c1N,94 to 96
4,CCCCNS(=O)(=O)c1ccc(S(N)(=O)=O)cc1,164 to 167
5,COc1cc(-c2ncnc(C(F)(F)F)c2C)c(F)cc1Cl,144 to 146
6,COC(=O)c1ccc(CBr)c(NC(=O)c2ccc(C(C)(C)C)cc2C(=O)OC(C)(C)C)c1,135
7,CCOC(=O)c1cc2cccc(NC(=O)OC(C)(C)C)c2[nH]1,132 to 133
8,COc1ccc(CNc2cnn[nH]2)cc1OC1CCCC1,113 to 114
9,Cc1cccc(C)c1NC(=O)CN1CCN(c2ncnc3sccc23)C(C)C1 (stereo not drawn),184 to 185
10,CCC(=O)NCCC1CCc2ccc3nc(C)oc3c21 (stereo not drawn),111 to 113
11,CCCC(=O)N1CCc2cc(S(=O)(=O)N3CCN(c4cccc(Cl)c4)CC3)ccc21,267 to 268
12,N#Cc1ccc(NC(=O)C(F)(F)C(F)(F)C(F)(F)F)cc1,116 to 118
13,CC(C)(C#N)Cc1ccccc1CC(C)(C)C#N,76 to 80
14,NS(=O)(=O)c1ncc2ccccn12,179 to 180
15,CCCC12CCC(=O)C=C1c1c(cc(OCC(=O)O)c(Cl)c1Cl)C2O (stereo not drawn),206 to 208

# Further lines, results first:
row,melting point [°C],SMILES
1,227 to 228,COc1ccc(C(N)=O)c(OC)c1-c1ccc(C[C@H](NC(=O)c2c(Cl)cccc2Cl)C(=O)O)cc1
2,118 to 120,CC(C)[C@H]1COC(=O)N1C(=O)[C@@H](CC(=O)OCc1ccccc1)Cc1ccccc1
3,125,COc1ccc(OCC(F)(F)F)cc1N1CCN(CCCNC(=O)c2c(-c3ccccc3)noc2C)CC1
4,132 to 134,CC1(C)OCCc2c1n(Cc1ccccc1)c1ccccc21
5,205,N#Cc1c(NC(=O)c2ccccc2)ccc2ccccc12
6,172 to 174,CC(C)(C)OC(=O)CN1C(=O)[C@@H](N)[C@H](c2ccccc2)Sc2ccccc21 (relative stereo)
7,130 to 131,COC1(OCCc2nc(C(C)C)c(Sc3cc(Cl)cc(Cl)c3)n2C)c2ccccc2-c2ccccc21
8,142 to 144,Fc1ccc(C(=C(c2ccccc2)C(F)(F)F)c2ccc(OCCBr)cc2)cc1
9,88,Cc1cccc(-c2nc3ccc(OCCCl)cc3n2Cc2ccccc2)c1
10,122 to 125,O=C(Nc1cccc2c(=O)cc(C(=O)O)oc12)c1ccc2c(c1)CC(CSCc1ccccc1)O2 (stereo not drawn)
11,165 to 170,CCCCc1nc(C(C)(C)O)c(C(=O)O)n1Cc1ccc(-c2ccccc2C(=O)C(=O)O)cc1
12,131 to 134,NC(Cc1ccccc1-c1ccc(C(=O)N2Cc3ccc(C(=O)NCc4cccnc4)n3Cc3ccccc32)cc1)=NO
13,260 to 264,O=C(O)c1ccccc1-c1cc(-c2ccc(O)cc2)[nH]n1
14,196 to 198,CCCC(=O)Nc1ccc2c(c1)CCC(CN1CCC(O)(c3ccccc3)CC1)C2=O (stereo not drawn)
15,186 to 188,CCOc1nc2c(cc1C)C(=O)c1ccccc1C2=O
16,141 to 142,C=C1C(=O)N[C@@H](Cc2ccccc2)C(=O)N1C(C)C
17,142 to 143,C=CCSc1cc(C(=O)O)cc(N)c1Oc1ccccc1
18,108,C=CCOC(=O)c1c(C)nc2c(cnn2Cc2ccccc2)c1N
19,77 to 78,C=C(F)Cc1ccc(OC)cc1OCc1ccccc1
20,156 to 157,O=C(O)c1cccc(-c2cccc3c2OC(Cc2cccc(C(F)(F)F)c2)C3)c1 (stereo not drawn)
21,52 to 57,COCc1cc(C(O)CN(Cc2ccccc2)Cc2ccccc2)ccc1OCc1ccccc1 (stereo not drawn)
22,141 to 142,CCOC(=O)c1c(-c2ccccc2)c2c3ccccc3cnn2c1C(C)C

# Reference: a melting point compilation (Tetko et al.; mined from patent text by program, amines drawn as free bases though some values may be those of a salt)
